On to `COc1ccc(-n2nc(C[C@H](C(=O)[O-])c3cccc(C)c3)cc2-c2ccc(Cl)c(Cl)c2)cc1.[Na+]` [Example 1, (S)-Sodium; 3-[5-(3,4-dichloro-phenyl)-1-(4-methoxy-phenyl)-1H-pyrazol-3-yl]-2-m-tolyl-propionate], for which the melting point (commonly the temperature, or range, at which the solid turns liquid) lay in the range of 295.5 to 297.5 °C.
Molecule `CON(C)C(=O)c1ccc(Cl)c(Cl)c1` [Example 511, 3,4-Dichloro-N-methoxy-N-methyl-benzamide] gave a melting point of 39.5 to 43.2 °C.
Take `COc1ccc(-n2nc(C[C@H](C(=O)[O-])c3cccc(C)c3)cc2-c2ccc(Cl)c(Cl)c2)cc1.[Na+]` (stereo in doubt) [Example 505]: the melting point is 280 to 285 °C.

The values above are taken from patent publication US7037931B2, “CCK-1 receptor modulators” (Janssen Pharmaceutica N.V., priority 2002, dated 2006).
